{"source": "paper PMC10272271", "about": "“MAM-2201 acute administration impairs motor, sensorimotor, prepulse inhibition, and memory functions in mice: a comparison with its analogue AM-2201” (Psychopharmacology, 2023)", "assay_type_in_all_cases": "in vivo, mouse", "key": {"[1]": {"tested_on": "CD-1 male mice", "assay": "Visual object response test", "description": "For the overall study 234 mice were used. In sensorimotor (visual object, visual placing, acoustic, and overall tactile responses) tests for MAM-2201, experiments for each treatment dose (vehicle or 5 different MAM-2201 doses, 0.01, 0.1, 1, 3, and 6 mg/kg) used 8 mice (total mice used: 48) and for MAM-2201 with AM-251 pretreatment, experiments for each dose regimen (vehicle + AM-251 or MAM-2201 + AM-251, 6 mg/kg) used 16 mice. In the analysis of spontaneous locomotion (open field test) for MAM-2201, experiments for each treatment regimen (vehicle or 4 different MAM-2201 doses, 0.01, 0.1, 1, and 6 mg/kg) used 10 mice (total mice used: 50). In the PPI test for MAM-2201, experiments for each treatment (vehicle or 3 different MAM-2201 doses, 0.01, 0.1, and 1 mg/kg) used 10 mice (total mice used: 40), while for MAM-2201 experiments in the Novel Object Recognition (NOR) test for each treatment regimen (vehicle or 3 different MAM-2201 and vehicle or 3 different AM-2201 doses, 0.01, 0.1, and 1 mg/kg) used 10 mice (total mice used: 80). In the present study the effect of MAM-2201 on sensorimotor responses was investigated using a battery of behavioral tests widely used in studies of “safety-pharmacology,” that we routinely adopted in our laboratory, for the preclinical characterization of new molecules in rodents (Ossato et al. [2015]; Vigolo et al. [2015]; Bilel et al. [2020]). The voluntary and involuntary motor responses of the animal to different visual, acoustic, and tactile stimuli were evaluated according to the procedure described in our previous studies (Ossato et al. [2015]; Bilel et al. [2020]). To reduce the number of animals used, mice were evaluated in functional observational tests carried out in a consecutive manner according to the following time scheme: observation of visual object responses (frontal and lateral view), acoustic response, tactile response (vibrissae, corneal and pinnae reflexes), and visual placing response. Sensorimotor tests were measured at 10, 30, 60, 120, 180, 240, and 300 min after injections for the evaluation of the visual object, acoustic and the tactile response, and at 15, 45, 75, 135, 195, 255, and 315 min after injections for the evaluation of visual placing response. Behavioral tests were conducted in a thermostated (temperature: 20–22 °C, humidity: 45–55%) and light (150 lx) controlled room with a background noise of 40 ± 4 dB. The apparatus for the visual object, acoustic and tactile sensorimotor tests consisted of an experimental chamber (350 × 350 × 350 mm) with black methacrylate walls and a transparent front door. During the week before the experiment, each mouse was placed in the box and handled (once a day) on every other day, i.e., 3 times, to get used to both the environment and the experimenter. To avoid olfactory cues, cages were carefully cleaned with a dilute (5%) ethanol solution and rinsed with water. All experiments were performed between 8:30 AM and 2:00 PM and conducted by trained observers working in pairs who were blinded to the treatment being tested (Ossato et al. [2015]). The behavior of mice was videotaped by a camera (B/W USB Camera day & night with varifocal lens; Ugo Basile, Italy) placed at the top or on one side of the box and analyzed off-line by a different trained operator. Spontaneous locomotion studies were conducted in a separate set of animals through ANYMAZE test. Sensory gating was evaluated by analysis of the pre-pulse inhibition (PPI) of the acoustic startle reflex as previously described (Bilel et al. [2020]).\nVisual object response test was used to evaluate the ability of the mouse to see an object approaching from the front (frontal view) or the side (lateral view) that typically induces the animal to shift or turn the head, bring the forelimbs in the position of “defense” or retreat from it. For the frontal visual response, a white horizontal bar was moved frontally to the mouse head and the maneuver was repeated 3 times. […]"}, "[2]": {"tested_on": "CD-1 male mice", "assay": "Visual placing response test", "description": "For the overall study 234 mice were used. In sensorimotor (visual object, visual placing, acoustic, and overall tactile responses) tests for MAM-2201, experiments for each treatment dose (vehicle or 5 different MAM-2201 doses, 0.01, 0.1, 1, 3, and 6 mg/kg) used 8 mice (total mice used: 48) and for MAM-2201 with AM-251 pretreatment, experiments for each dose regimen (vehicle + AM-251 or MAM-2201 + AM-251, 6 mg/kg) used 16 mice. In the analysis of spontaneous locomotion (open field test) for MAM-2201, experiments for each treatment regimen (vehicle or 4 different MAM-2201 doses, 0.01, 0.1, 1, and 6 mg/kg) used 10 mice (total mice used: 50). In the PPI test for MAM-2201, experiments for each treatment (vehicle or 3 different MAM-2201 doses, 0.01, 0.1, and 1 mg/kg) used 10 mice (total mice used: 40), while for MAM-2201 experiments in the Novel Object Recognition (NOR) test for each treatment regimen (vehicle or 3 different MAM-2201 and vehicle or 3 different AM-2201 doses, 0.01, 0.1, and 1 mg/kg) used 10 mice (total mice used: 80). […] The voluntary and involuntary motor responses of the animal to different visual, acoustic, and tactile stimuli were evaluated according to the procedure described in our previous studies (Ossato et al. [2015]; Bilel et al. [2020]). To reduce the number of animals used, mice were evaluated in functional observational tests carried out in a consecutive manner according to the following time scheme: observation of visual object responses (frontal and lateral view), acoustic response, tactile response (vibrissae, corneal and pinnae reflexes), and visual placing response. Sensorimotor tests were measured at 10, 30, 60, 120, 180, 240, and 300 min after injections for the evaluation of the visual object, acoustic and the tactile response, and at 15, 45, 75, 135, 195, 255, and 315 min after injections for the evaluation of visual placing response. […] Sensory gating was evaluated by analysis of the pre-pulse inhibition (PPI) of the acoustic startle reflex as previously described (Bilel et al. [2020]). […]"}, "[3]": {"tested_on": "CD-1 male mice", "assay": "Acoustic response test", "conditions": "for acoustic response reduced to about: immediately after administration", "description": "For the overall study 234 mice were used. In sensorimotor (visual object, visual placing, acoustic, and overall tactile responses) tests for MAM-2201, experiments for each treatment dose (vehicle or 5 different MAM-2201 doses, 0.01, 0.1, 1, 3, and 6 mg/kg) used 8 mice (total mice used: 48) and for MAM-2201 with AM-251 pretreatment, experiments for each dose regimen (vehicle + AM-251 or MAM-2201 + AM-251, 6 mg/kg) used 16 mice. In the analysis of spontaneous locomotion (open field test) for MAM-2201, experiments for each treatment regimen (vehicle or 4 different MAM-2201 doses, 0.01, 0.1, 1, and 6 mg/kg) used 10 mice (total mice used: 50). In the PPI test for MAM-2201, experiments for each treatment (vehicle or 3 different MAM-2201 doses, 0.01, 0.1, and 1 mg/kg) used 10 mice (total mice used: 40), while for MAM-2201 experiments in the Novel Object Recognition (NOR) test for each treatment regimen (vehicle or 3 different MAM-2201 and vehicle or 3 different AM-2201 doses, 0.01, 0.1, and 1 mg/kg) used 10 mice (total mice used: 80). In the present study the effect of MAM-2201 on sensorimotor responses was investigated using a battery of behavioral tests widely used in studies of “safety-pharmacology,” that we routinely adopted in our laboratory, for the preclinical characterization of new molecules in rodents (Ossato et al. [2015]; Vigolo et al. [2015]; Bilel et al. [2020]). The voluntary and involuntary motor responses of the animal to different visual, acoustic, and tactile stimuli were evaluated according to the procedure described in our previous studies (Ossato et al. [2015]; Bilel et al. [2020]). To reduce the number of animals used, mice were evaluated in functional observational tests carried out in a consecutive manner according to the following time scheme: observation of visual object responses (frontal and lateral view), acoustic response, tactile response (vibrissae, corneal and pinnae reflexes), and visual placing response. Sensorimotor tests were measured at 10, 30, 60, 120, 180, 240, and 300 min after injections for the evaluation of the visual object, acoustic and the tactile response, and at 15, 45, 75, 135, 195, 255, and 315 min after injections for the evaluation of visual placing response. Behavioral tests were conducted in a thermostated (temperature: 20–22 °C, humidity: 45–55%) and light (150 lx) controlled room with a background noise of 40 ± 4 dB. The apparatus for the visual object, acoustic and tactile sensorimotor tests consisted of an experimental chamber (350 × 350 × 350 mm) with black methacrylate walls and a transparent front door. During the week before the experiment, each mouse was placed in the box and handled (once a day) on every other day, i.e., 3 times, to get used to both the environment and the experimenter. To avoid olfactory cues, cages were carefully cleaned with a dilute (5%) ethanol solution and rinsed with water. All experiments were performed between 8:30 AM and 2:00 PM and conducted by trained observers working in pairs who were blinded to the treatment being tested (Ossato et al. [2015]). The behavior of mice was videotaped by a camera (B/W USB Camera day & night with varifocal lens; Ugo Basile, Italy) placed at the top or on one side of the box and analyzed off-line by a different trained operator. […] Sensory gating was evaluated by analysis of the pre-pulse inhibition (PPI) of the acoustic startle reflex as previously described (Bilel et al. [2020]). […]"}, "[4]": {"tested_on": "CD-1 male mice", "assay": "Overall tactile response (vibrissae, corneal, pinnae reflexes)", "description": "For the overall study 234 mice were used. In sensorimotor (visual object, visual placing, acoustic, and overall tactile responses) tests for MAM-2201, experiments for each treatment dose (vehicle or 5 different MAM-2201 doses, 0.01, 0.1, 1, 3, and 6 mg/kg) used 8 mice (total mice used: 48) and for MAM-2201 with AM-251 pretreatment, experiments for each dose regimen (vehicle + AM-251 or MAM-2201 + AM-251, 6 mg/kg) used 16 mice. In the analysis of spontaneous locomotion (open field test) for MAM-2201, experiments for each treatment regimen (vehicle or 4 different MAM-2201 doses, 0.01, 0.1, 1, and 6 mg/kg) used 10 mice (total mice used: 50). In the PPI test for MAM-2201, experiments for each treatment (vehicle or 3 different MAM-2201 doses, 0.01, 0.1, and 1 mg/kg) used 10 mice (total mice used: 40), while for MAM-2201 experiments in the Novel Object Recognition (NOR) test for each treatment regimen (vehicle or 3 different MAM-2201 and vehicle or 3 different AM-2201 doses, 0.01, 0.1, and 1 mg/kg) used 10 mice (total mice used: 80). In the present study the effect of MAM-2201 on sensorimotor responses was investigated using a battery of behavioral tests widely used in studies of “safety-pharmacology,” that we routinely adopted in our laboratory, for the preclinical characterization of new molecules in rodents (Ossato et al. [2015]; Vigolo et al. [2015]; Bilel et al. [2020]). The voluntary and involuntary motor responses of the animal to different visual, acoustic, and tactile stimuli were evaluated according to the procedure described in our previous studies (Ossato et al. [2015]; Bilel et al. [2020]). To reduce the number of animals used, mice were evaluated in functional observational tests carried out in a consecutive manner according to the following time scheme: observation of visual object responses (frontal and lateral view), acoustic response, tactile response (vibrissae, corneal and pinnae reflexes), and visual placing response. Sensorimotor tests were measured at 10, 30, 60, 120, 180, 240, and 300 min after injections for the evaluation of the visual object, acoustic and the tactile response, and at 15, 45, 75, 135, 195, 255, and 315 min after injections for the evaluation of visual placing response. Behavioral tests were conducted in a thermostated (temperature: 20–22 °C, humidity: 45–55%) and light (150 lx) controlled room with a background noise of 40 ± 4 dB. […] The behavior of mice was videotaped by a camera (B/W USB Camera day & night with varifocal lens; Ugo Basile, Italy) placed at the top or on one side of the box and analyzed off-line by a different trained operator. […] Sensory gating was evaluated by analysis of the pre-pulse inhibition (PPI) of the acoustic startle reflex as previously described (Bilel et al. [2020]). […]"}}}
{"smiles": "Cc1ccc(C(=O)c2cn(CCCCCF)c3ccccc23)c2ccccc12", "note": "[MAM-2201, 1-[(5-fluoropentyl)-1H-indol-3-yl](4-methyl-1-naphthalenyl) methanone]", "values": [{"measurement": "effect on visual object response", "setting": "[1]; 0.01 mg/kg i.p., at 30 min after injection", "result": "transiently reduced"}, {"measurement": "effect on visual object response", "setting": "[1]; 0.1 mg/kg i.p.", "result": "long-lasting inhibition"}, {"measurement": "effect on visual object response", "setting": "[1]; 1 mg/kg i.p., at 30 min", "result": "total inhibition"}, {"measurement": "effect on visual object response", "setting": "[1]; 3 and 6 mg/kg i.p., until end of test (5 h)", "result": "deep and prolonged impairment"}, {"measurement": "ED50", "setting": "[1]; Mus musculus, ip, mice, value ± SEM, dose for 50% of overall mean effect", "result": "1.14 ± 0.089", "unit": "mg/kg"}, {"measurement": "effect on visual placing response", "setting": "[2]; 0.01-6 mg/kg i.p., persisted up to 5 h at all doses", "result": "drastic impairment"}, {"measurement": "ED50", "setting": "[2]; Mus musculus, ip, mice, value ± SEM", "result": "0.291 ± 0.025", "unit": "mg/kg"}, {"measurement": "acoustic response reduced to about", "setting": "[3]; 1 mg/kg i.p.", "result": "about 20%"}, {"measurement": "acoustic response reduced to about", "setting": "[3]; 3 mg/kg i.p.", "result": "~80", "unit": "%"}, {"measurement": "acoustic response reduced to about", "setting": "[3]; 6 mg/kg i.p.", "result": "~100", "unit": "%"}, {"measurement": "ED50", "setting": "[3]; Mus musculus, ip, mice, i.p., value ± SEM, acoustic response test, read-out: ED50 (mg/kg), Startle reflex", "result": "1.25 ± 0.013", "unit": "mg/kg"}, {"measurement": "effect on overall tactile response", "setting": "[4]; 1 mg/kg i.p., first hour after administration", "result": "slightly reduced"}, {"measurement": "effect on overall tactile response", "setting": "[4]; 3 and 6 mg/kg i.p.", "result": "deeper and more persistent effect"}]}
